# Measured values published in patent US10538535B2, “Antitumoral compounds” (priority 2017, dated 2020).
# Where two headings read alike, the source gives them in different places.
# Assays:
# MDA-MB-231 cells = assay: cells; details: Homo sapiens, MDA-MB-231, 72 h
# Summary of the method: (§1)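 Cells were seeded at 5000 per well, attached overnight in drug-free medium, then exposed for 72 hours to ten 2/5 serial dilutions (10 to 0.003 μg/mL, 1% final DMSO) in triplicate. Growth was measured by SRB staining against a time-zero plate, with NCI-algorithm four-parameter logistic fits.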
# PSN1 cells = assay: cells; details: Homo sapiens, PSN1, 72 h
# Summary of the method: as §1
# A549 cells = assay: cells; details: Homo sapiens, A549, 72 h
# Summary of the method: as §1
# HT29 cells = assay: cells; details: Homo sapiens, HT-29, 72 h
# Summary of the method: as §1
# H526 tumors = assay: In vivo xenograft, human lung (SCLC) H526; details: iv Days 0, 7, 14, 12-R 0.05 mg/kg, Compound D 0.5 mg/kg
# Description for H460 tumors: Female athymic nu/nu mice (Harlan Laboratories Models, S. L. Barcelona, Spain or Envigo, Spain) were utilized for all experiments. Animal were housed in individually ventilated cages Sealsafe® Plus, Techniplast S.P.A.), up to ten per cage on a 12-hour light-dark cycle at 21-23° C. and 40-60% humidity. […] Animals were acclimated for at least 5 days prior to tumor implantation with a tumor cell suspension.
# H460 cells were maintained in vitro at 37° C. with 5% CO2 in Dulbecco's Modified Eagle's Medium (Sigma-Aldrich, Co). Culture cells were passaged every 3 to 5 days upon reaching confluence. Each animal was subcutaneously implanted (on the right flank using 26 G needle and a 1 cc syringe) at 4-6 weeks of age with 5×10^6 H460 cells suspended in 0.05 mL of a solution consisting of 50% Matrigel® (Corning Incorporated Life Sciences) and 50% medium without serum or antibiotics.
# Treatment tolerability was assessed by monitoring body weight evolution, clinical signs of systemic toxicity, as well as evidences of local damage in the injection site.
# Treatments producing >20% lethality and/or 20% net body weight loss were considered toxic.
compound,measurement,setting,value
COc1c(C)cc2c(c1O)[C@@H]1[C@@H]3[C@@H]4SC[C@]5(N[C@@H](C)Cc6c5[nH]c5ccccc65)C(=O)OC[C@@H](c5c6c(c(C)c(OC(C)=O)c54)OCO6)N3[C@@H](O)[C@H](C2)N1C [D],GI50,MDA-MB-231 cells,9.88 nM
same,CC50,MDA-MB-231 cells; read-out: LC50,53.3 nM
same,IC (TGI),MDA-MB-231 cells; read-out: TGI,19.5 nM
same,GI50,PSN1 cells,20.8 nM
same,CC50,PSN1 cells; read-out: LC50,24.7 nM
same,IC (TGI),PSN1 cells; read-out: TGI,22.1 nM
same,GI50,A549 cells,12.5 nM
same,CC50,A549 cells; read-out: LC50,> 130 nM
same,IC (TGI),A549 cells; read-out: TGI,28.6 nM
same,GI50,HT29 cells,10.3 nM
same,CC50,HT29 cells; read-out: LC50,> 130 nM
same,IC (TGI),HT29 cells; read-out: TGI,23.4 nM
same,Median Tumor Volume,"MDA-MB-231 tumors; Table 22, Day 0, iv Days 0, 7, 14",129.5 mm^3
same,Median Tumor Volume,"MDA-MB-231 tumors; Table 22, Day 7, iv Days 0, 7, 14",147.9 mm^3
same,Median Tumor Volume,"MDA-MB-231 tumors; Table 22, Day 14, iv Days 0, 7, 14",186.4 mm^3
same,Median Tumor Volume,"MDA-MB-231 tumors; Table 22, Day 21, iv Days 0, 7, 14",136.5 mm^3
same,Median Tumor Volume,"MDA-MB-231 tumors; Table 22, Day 28, iv Days 0, 7, 14",290.7 mm^3
same,Median Tumor Volume,"MDA-MB-231 tumors; Table 22, Day 35, iv Days 0, 7, 14",431.7 mm^3
same,Median Tumor Volume,"MDA-MB-231 tumors; Table 22, Day 42, iv Days 0, 7, 14",770.1 mm^3
same,Median Tumor Volume,"MDA-MB-231 tumors; Table 22, Day 49, iv Days 0, 7, 14",970.0 mm^3
same,Median Tumor Volume,"MDA-MB-231 tumors; Table 22, Day 56, iv Days 0, 7, 14",1461.9 mm^3
same,Median Tumor Volume,"MDA-MB-231 tumors; Table 22, Day 63, iv Days 0, 7, 14",1526.4 mm^3
same,Median Tumor Volume,"MDA-MB-231 tumors; iv, 0.5 mg/kg, 0 h",149.6 mm^3
same,Median Tumor Volume,"MDA-MB-231 tumors; iv, 0.5 mg/kg, 48 h",217.2 mm^3
same,Median Tumor Volume,"MDA-MB-231 tumors; iv, 0.5 mg/kg, 120 h",284.5 mm^3
same,Median Tumor Volume,"MDA-MB-231 tumors; iv, 0.5 mg/kg, 168 h",310.0 mm^3
same,Median Tumor Volume,"MDA-MB-231 tumors; iv, 0.5 mg/kg, 336 h",237.7 mm^3
same,Median Tumor Volume,"MDA-MB-231 tumors; iv, 0.5 mg/kg, 384 h",261.2 mm^3
same,Median Tumor Volume,"MDA-MB-231 tumors; iv, 0.5 mg/kg, 456 h",251.3 mm^3
same,Median Tumor Volume,"MDA-MB-231 tumors; iv, 0.5 mg/kg, 504 h",219.9 mm^3
same,Median Tumor Volume,"MDA-MB-231 tumors; iv, 0.5 mg/kg, 552 h",221.8 mm^3
same,Median Tumor Volume,"MDA-MB-231 tumors; iv, 0.5 mg/kg, 672 h",320.3 mm^3
same,Median Tumor Volume,"MDA-MB-231 tumors; iv, 0.5 mg/kg, 720 h",401.6 mm^3
same,Median Tumor Volume,"MDA-MB-231 tumors; iv, 0.5 mg/kg, 840 h",629.2 mm^3
same,Median Tumor Volume,"MDA-MB-231 tumors; iv, 0.5 mg/kg, 888 h",670.7 mm^3
same,Median Tumor Volume,"MDA-MB-231 tumors; iv, 0.5 mg/kg, 960 h",669.9 mm^3
same,Median Tumor Volume,"MDA-MB-231 tumors; iv, 0.5 mg/kg, 1056 h",798.1 mm^3
same,Median Tumor Volume,"MDA-MB-231 tumors; iv, 0.5 mg/kg, 1128 h",857.7 mm^3
same,Median Tumor Volume,"MDA-MB-231 tumors; iv, 0.5 mg/kg, 1176 h",870.7 mm^3
same,Median Tumor Volume,"MDA-MB-231 tumors; iv, 0.5 mg/kg, 1224 h",925.8 mm^3
same,Median Tumor Volume,"MDA-MB-231 tumors; iv, 0.5 mg/kg, 1296 h",1005.4 mm^3
same,Median Tumor Volume,"MDA-MB-231 tumors; iv, 0.5 mg/kg, 1344 h",1064.2 mm^3
same,Median Tumor Volume,"MDA-MB-231 tumors; iv, 0.5 mg/kg, 1392 h",1235.6 mm^3
same,Median Tumor Volume,"MDA-MB-231 tumors; iv, 0.5 mg/kg, 1464 h",1367.8 mm^3
same,Median Tumor Volume,"MDA-MB-231 tumors; iv, 0.5 mg/kg, 1512 h",1553.7 mm^3
same,Median Tumor Volume,"H460 tumors; Table 24, Day 0, iv Days 0, 7, 14",203.4 mm^3
same,Median Tumor Volume,"H460 tumors; Table 24, Day 2, iv Days 0, 7, 14",367.3 mm^3
same,Median Tumor Volume,"H460 tumors; Table 24, Day 7, iv Days 0, 7, 14",792.0 mm^3
same,Median Tumor Volume,"H460 tumors; Table 24, Day 9, iv Days 0, 7, 14",854.6 mm^3
same,Median Tumor Volume,"H460 tumors; Table 24, Day 12, iv Days 0, 7, 14",1026.7 mm^3
same,Median Tumor Volume,"H460 tumors; Table 24, Day 14, iv Days 0, 7, 14",1175.8 mm^3
same,Median Tumor Volume,"H460 tumors; Table 24, Day 16, iv Days 0, 7, 14",1322.1 mm^3
same,Median Tumor Volume,"H460 tumors; Table 24, Day 19, iv Days 0, 7, 14",1581.1 mm^3
same,Median Tumor Volume,"H460 tumors; Table 24, Day 21, iv Days 0, 7, 14",1789.3 mm^3
same,Median Tumor Volume,"H460 tumors; Table 24, Day 23, iv Days 0, 7, 14",1966.5 mm^3
same,Median Tumor Volume,"H460 tumors; Table 24, Day 26, iv Days 0, 7, 14",2080.7 mm^3
same,Median Tumor Volume,"H460 tumors; iv, 0.5 mg/kg, 0 h",187.2 mm^3
same,Median Tumor Volume,"H460 tumors; iv, 0.5 mg/kg, 48 h",329.7 mm^3
same,Median Tumor Volume,"H460 tumors; iv, 0.5 mg/kg, 120 h",559.4 mm^3
same,Median Tumor Volume,"H460 tumors; iv, 0.5 mg/kg, 168 h",756.5 mm^3
same,Median Tumor Volume,"H460 tumors; iv, 0.5 mg/kg, 336 h",1626.8 mm^3
same,Median Tumor Volume,"H460 tumors; iv, 0.5 mg/kg, 384 h",2025.0 mm^3
same,Median Tumor Volume,"H526 tumors; Table 32, Day 0.0",216.1 mm^3
same,Median Tumor Volume,"H526 tumors; Table 32, Day 2.0",240.9 mm^3
same,Median Tumor Volume,"H526 tumors; Table 32, Day 4.0",99.3 mm^3
same,Median Tumor Volume,"H526 tumors; Table 32, Day 7.0",56.7 mm^3
same,Median Tumor Volume,"H526 tumors; Table 32, Day 9.0",62.5 mm^3
same,Median Tumor Volume,"H526 tumors; Table 32, Day 11.0",62.5 mm^3
same,Median Tumor Volume,"H526 tumors; Table 32, Day 14.0",32.0 mm^3
same,Median Tumor Volume,"H526 tumors; Table 32, Day 16.0",4.0 mm^3
same,Median Tumor Volume,"H526 tumors; Table 32, Day 21.0",4.0 mm^3
same,Median Tumor Volume,"H526 tumors; Table 32, Day 28.0",4.0 mm^3
same,Median Tumor Volume,"H526 tumors; Table 32, Day 35.0",4.0 mm^3
